Key:
[1] = system: motoneuron cells derived from iPS cells having SOD1-L144FVX mutation; settings: 168 h
[2] = system: Erk; assay: Western blot of Erk phosphorylation in nerve cells; format: cell-based, human; settings: 1 μM, nerve cells having SOD1 mutation
Procedure: (§1) It is known that phosphorylation of Erk is promoted in nerve cells having mutation SOD1. To examine the mechanism of these candidate medicaments, phosphorylation of Erk was examined by Western blot method. The Western blot method included dissolving cells in RIPA buffer containing 0.1% SDS, 150 mM NaCl, 1% NP-40, 0.5% deoxycholate, 50 mM Tris-HCl (pH 8.0), protease inhibitor (Roche) and phosphatase inhibitor (Roche), centrifugation, measurement of protein concentration, addition of 20 μg amount of protein to each lane, and electrophoresis in 10-20% polyacrylamide gel. After blotting to Immobilon-P membrane (Millipore), the cells were stained with antibodies against Erk, phosphorylated Erk, c-Abl and phosphorylated c-Abl and detected.

[3] = system: motoneuron cells derived from iPS cells of sporadic ALS patients; assay: survival of motoneuron cells induced from sporadic ALS patient iPS cells; format: cell-based, human
[4] = system: motoneuron cells derived from iPS cells of ALS patients having C9orf72 mutation; assay: survival of motoneuron cells induced from ALS patient iPS cells (C9orf72 mutation); format: cell-based, human; settings: added on day 7, survived motoneuron cells counted on day 14
[5] = system: c-abl; assay: Western blot of c-abl phosphorylation in nerve cells; format: cell-based, human; settings: 1 μM, nerve cells having SOD1 mutation
Procedure: as §1

[6] = system: nerve cell derived from iPS cell having SOD1-L144FVX mutation; assay: neurite length of nerve cells derived from iPS cells; format: cell-based, human; settings: 1 μM, cultured for 48 hr
Procedure: In detail, small clumps (diameter 40-100 μm) of iPS cell colonies were subjected to a filter treatment with Cell Strainer (BD Falcon), and cultured for 10 days in N2B27 medium [DMEM/F12, Neurobasal, N2 supplement, B27 supplement, L-Gln] added with 100 ng/ml human recombinant Noggin (R&D systems) and 1 μM SB431542 (Sigma) in a culture dish coated with poly-L-lysine (Sigma)/Laminin (BD Falcon) (PLL/LM). Then, the colonies were dissociated into small clumps with 200 U/ml collagenase added with CaCl2, and transferred into a culture dish coated with PLL/ECL (Millipore). After 7 days of culture, the cells were dissociated with Accutase (Innovative Cell Technologies), and cultured in a culture dish coated with PLL/ECL for 7 days (24 d). Finally, the cells dissociated with Accutase and selected by a 40 μm cell strainer (BD Falcon) were counted, cultured for 31 days (56d) in N2B27 medium added with 10 ng/ml BDNF, GDNF, and NT-3 (R&D systems) in a culture dish coated with PLL/LM/Fibronectin (Millipore) to give nerve cells from the iPS cells.

[7] = system: motoneuron cells derived from iPS cells having SOD1-L144FVX mutation; assay: survival of motoneuron cells induced from ALS patient iPS cells (SOD1 mutation)
[8] = added on day 7, survived motoneuron cells counted on day 14

Row | SMILES | MN index (motoneuron cell survival number ratio as compared to negative control) [1] | phosphorylation of Erk [2] | efficacy for sporadic ALS (conclusion from Tables 5 and 6) [3] | cell survival rate improvement, sporadic [3, 8] | cell survival rate improving effect, significance, sporadic [3, 8] | cell survival rate improvement, C9orf72 mutation [4] | cell survival rate improving effect, significance, C9orf72 mutation [4] | phosphorylation of c-abl [5] | length of neuritis [6] | efficacy for ALS having SOD1 mutation (conclusion from Tables 5 and 6) [7] | dose correlation in the protection effect on motoneuron cell having SOD1 mutation ([7]; FIG. 2, FIG. 6) | cell survival rate improvement, SOD1 mutation [7, 8] | cell survival rate improving effect, significance, SOD1 mutation [7, 8]
1 | CN(C)CCCn1cc(C2=C(c3c[nH]c4ccccc34)C(=O)NC2=O)c2ccccc21 [Bisindolyl-maleimide I, Bisindolylmaleimide I] | 7.96 |  |  |  |  |  |  |  |  |  |  |  | 
2 | COc1cc2nccc(Oc3ccc(NC(=O)Nc4cc(C)on4)c(Cl)c3)c2cc1OC [Tivozanib] |  | decreased | higher efficacy | ○ (cell survival rate improvement not less than 20%) | ○ (significant difference (p < 0.05)) | x (cell survival rate improvement less than 20%) | ○ (significant difference (p < 0.05)) | decreased | elongation of neuritis | higher efficacy | increase in the effect in a dose-dependent manner | ○ (cell survival rate improvement not less than 20%) | ○ (significant difference (p < 0.05))
